According to PubChem BioAssay (NCI):
Several values for one entry are separate records, joined by “and”; a condition that tells them apart may be missing. Identical values can stand only once.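 In this assay, cells in 96-well plates receive the compound at five concentrations for 48 hours. Endpoints are linearly interpolated between the surrounding concentrations. GI50 = concentration required for 50% inhibition of growth. TGI: total growth inhibition.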

Columns and labels:
Test in all cases: DTP human tumour cell line panel, 48 h
SN12C renal = test system: SN12C renal
MALME-3M melanoma = test system: MALME-3M melanoma
IGROV1 ovarian = test system: IGROV1 ovarian
HCC-2998 colon = test system: HCC-2998 colon
NCI-H23 lung = test system: NCI-H23 lung
SW-620 colon = test system: SW-620 colon
UO-31 renal = test system: UO-31 renal
COLO 205 colon = test system: COLO 205 colon
NCI-H522 lung = test system: NCI-H522 lung
SK-MEL-2 melanoma = test system: SK-MEL-2 melanoma

Row | Structure (SMILES) | GI50 (SN12C renal) | TGI (SN12C renal) | GI50 (MALME-3M melanoma) [µM] | TGI (MALME-3M melanoma) | GI50 (IGROV1 ovarian) | TGI (IGROV1 ovarian) | GI50 (HCC-2998 colon) [µM] | TGI (HCC-2998 colon) | GI50 (NCI-H23 lung) [µM] | TGI (NCI-H23 lung) [µM] | GI50 (SW-620 colon) [µM] | TGI (SW-620 colon) [µM] | GI50 (UO-31 renal) | TGI (UO-31 renal) | GI50 (COLO 205 colon) [µM] | TGI (COLO 205 colon) | GI50 (NCI-H522 lung) [µM] | GI50 (SK-MEL-2 melanoma) [µM] | TGI (SK-MEL-2 melanoma) [µM] | TGI (NCI-H522 lung)
1 | CS(=O)(=O)Nc1cccc(-c2ccc3c(NC(=O)C4CC4)n[nH]c3c2)c1 | 5.25 µM | > 25 µM | > 4.93 | > 25 µM | 16.3 µM | > 25 µM | 4.08 | > 25 µM | 10.2 | > 25 | 2.14 | > 25 | 24.8 µM | > 25 µM | 1.81 | > 12.9 µM | 0.308 | 1.37 | > 25 | 
2 | CC(C)=CCc1ccc(O)c(=O)cc1C(C)C | 0.844 µM | > 100 µM | 0.966 | 9.39 µM | 0.43 µM | 16.1 µM | 0.583 | 29.8 µM | 0.701 | > 51.3 | 0.566 | > 100 | 0.378 µM | 3.92 µM | 3.27 | > 100 µM | 1.22 | 2.06 | > 85.7 | 69.9 µM
3 | N#Cc1c(-c2ccc(Cl)cc2)c(-c2ccc(Cl)cc2)nn(CCOC(=O)CCC(=O)O)c1=O |  | > 60 µM |  | 74.9 µM |  | > 85.3 µM |  | 16.1 µM |  | 19.6 |  | > 100 |  | 50 µM |  | 2.57 µM |  |  | 28.2 | 4.88 µM
4 | C#C[C@@]1(O)CCCC2=CC(=O)C[C@]21C |  | > 100 µM |  | > 100 µM |  | > 100 µM |  | > 100 µM |  | > 100 |  | > 100 |  | > 100 µM |  | > 100 µM |  |  | > 100 | > 100 µM
5 | CCOCC(=O)N[C@H]1CCc2cc(OC(=O)COCC)c(OC)c(OC)c2-c2ccc(SC)c(=O)cc21 | 0.0554 µM | > 100 µM |  | > 100 µM | 0.0382 µM | > 100 µM | 0.0211 | 0.0549 µM and 0.0866 µM | 0.0337 |  |  | > 100 | 0.68 µM | > 100 µM |  | 0.054 µM | 0.0279 | > 100 |  | 0.0389 µM and 0.107 µM
6 | Cc1cc(NCCCCNc2ccnc3cc(Cl)ccc23)nc(Nc2ccc(C(=O)N3CCCC3)cc2)n1 | 2.85 µM | 11.4 µM | 1.89 | 4.17 µM | 3.58 µM | 13.4 µM | 2.99 | 8.36 µM | 3.7 | 15.8 | 1.7 | 3.5 | 1.73 µM | 4.16 µM | 1.81 | 3.56 µM | 2.16 | 2.18 | 4.27 | 4.87 µM
7 | O=c1oc2ccc(F)cc2c(=O)n1-c1ccc(Cl)cc1F | 0.495 µM | 6.92 µM | 0.403 | 2.51 µM | 0.532 µM | > 45.8 µM | 2.89 | 10.8 µM | 0.604 | 5.16 | 1.24 | 21.2 | 0.264 µM | 2.52 µM | 2.14 | 4.87 µM | 0.363 | 0.42 | 2.53 | 4.5 µM
8 | CC1CC(C)/C(=N/NC(N)=O)C(C(O)CC2CCC(=O)NC2=O)C1 (stereo unspecified) | 1.99 µM | > 100 µM | 3.21 | 41.8 µM | 2.64 µM | 56.5 µM | 5.07 | > 100 µM | 3.57 | > 100 | 2.9 | > 100 | 2.33 µM | 34.3 µM | 3.7 | 51.5 µM | 1.7 | 2.2 | 12.3 | 18.1 µM
9 | O=C(Nc1cccnc1)c1cccc([N+](=O)[O-])c1 | > 100 µM | > 100 µM | > 100 | > 100 µM | > 100 µM | > 100 µM | > 100 | > 100 µM | > 100 | > 100 | > 100 | > 100 | > 100 µM | > 100 µM | > 100 | > 100 µM | > 100 | > 100 | > 100 | > 100 µM
10 | c1ccc2c(Nc3ccc(Oc4ccc(Nc5c6ccccc6nc6ccccc56)cc4)cc3)c3ccccc3nc2c1 | 0.213 µM and 0.375 µM | 0.651 µM and 1.69 µM | 2.08 | 3.02 µM and 3.82 µM | 0.292 µM and 1.16 µM | 1.21 µM and 2.64 µM |  | 0.0155 µM |  | 0.596 |  | 0.552 | 1.37 µM and 1.19 µM | 2.66 µM and 2.6 µM | 1.52 | 3.65 µM and 2.45 µM | 0.205 | 3.25 | 3.78 | 1.97 µM and 0.44 µM
